Source: ChEMBL document CHEMBL4823282, “Novel Broad-Spectrum Antimicrobial Peptide Derived from Anoplin and Its Activity on Bacterial Pneumonia in Mice” (J Med Chem, 2021)
Values after ≈ are worked out from the molar mass of the structure shown. Where a SMILES comes first, the peptide text is derived from it.

How the values were obtained:
Staphylococcus aureus = test: Antibacterial activity against Staphylococcus aureus ATCC 25923 incubated for 18 hrs by CLSI based broth dilution method; assay type: functional
Fungi = test: Antibacterial activity against fungi incubated for 18 hrs by CLSI based broth dilution method; assay type: functional
Bacteria [1] = test: Antibacterial activity against Gram-negative bacteria incubated for 18 hrs by CLSI based broth dilution method; assay type: functional
Klebsiella pneumoniae = test: Antibacterial activity against Klebsiella pneumoniae ATCC 700603 incubated for 18 hrs by CLSI based broth dilution method; assay type: functional
[2] = Selectivity ratio of MHC10 for BALB/C mouse erythrocytes to MIC for fungi; assay type: toxicity
Bacteria [3] = test: Antibacterial activity against Gram-positive bacteria incubated for 18 hrs by CLSI based broth dilution method; assay type: functional
Acinetobacter baumannii = test: Antibacterial activity against Acinetobacter baumannii ATCC 19606 incubated for 18 hrs by CLSI based broth dilution method; assay type: functional; settings: ATCC 19606 = CIP 70.34 = JCM 6841
[4] = Selectivity ratio of MHC10 for BALB/C mouse erythrocytes to MIC for bacteria; assay type: toxicity
[5] = Cytotoxicity against human glomerular mesangial cells incubated for 12 hrs by MTT assay; assay type: cell-based; settings: Glomerular mesangial cell
[6] = Selectivity ratio of MHC10 for BALB/C mouse erythrocytes to MIC for gram positive bacteria; assay type: toxicity
Escherichia coli = test: Antibacterial activity against Escherichia coli ATCC 25922 incubated for 18 hrs by CLSI based broth dilution method; assay type: functional
Erythrocyte = test: Hemolytic activity in BALB/C mouse erythrocytes incubated for 1 hr by absorbance method; assay type: ADME, cell-based
Bacteria [7] = test: Antibacterial activity against bacteria incubated for 18 hrs by CLSI based broth dilution method; assay type: functional
Enterococcus faecalis = test: Antibacterial activity against Enterococcus faecalis ATCC 29212 incubated for 18 hrs by CLSI based broth dilution method; assay type: functional
Pseudomonas aeruginosa = test: Antibacterial activity against Pseudomonas aeruginosa ATCC 27853 incubated for 18 hrs by CLSI based broth dilution method; assay type: functional
[8] = system: Staphylococcus epidermidis; test: Antibacterial activity against Staphylococcus epidermidis ATCC 12228 incubated for 18 hrs by CLSI based broth dilution method; assay type: functional
Bacillus subtilis = test: Antibacterial activity against Bacillus subtilis ATCC 23857 incubated for 18 hrs by CLSI based broth dilution method; assay type: functional
[9] = Selectivity ratio of MHC10 for BALB/C mouse erythrocytes to MIC for gram-negative bacteria; assay type: toxicity

Row | SMILES | MIC (Staphylococcus aureus) [µM] | MIC (Fungi) [µM] | MIC (Bacteria [1]) [µM] | MIC (Klebsiella pneumoniae) [µM] | selectivity ratio [2] | MIC (Bacteria [3]) [µM] | MIC (Acinetobacter baumannii) [µM] | selectivity ratio [4] | IC50 [5] [µM] | selectivity ratio at 18 h [6] | MIC (Escherichia coli) [µM] | MHC10 (Erythrocyte) | MIC (Bacteria [7]) [µM] | MIC (Enterococcus faecalis) [µM] | MIC (Pseudomonas aeruginosa) [µM] | MIC [8] [µM] | MIC (Bacillus subtilis) [µM] | selectivity ratio [9]
1 | CC(C)C[C@H](NC(=O)[C@H](Cc1ccccc1)NC(=O)CN)C(=O)N[C@@H](CCCCN)C(=O)N[C@@H](CCCNC(=N)N)C(=O)N[C@@H](Cc1ccccc1)C(=O)N[C@@H](CCCCN)C(=O)N[C@H](C(=O)N[C@@H](CC(C)C)C(=O)N[C@@H](Cc1ccccc1)C(N)=O)[C@@H](C)O (H-GFLKRFKTLF-NH2) | 64 (≈ 80.4 µg/mL) | 49.4 (≈ 62 µg/mL) | 53.8 (≈ 67.6 µg/mL) | 128 (≈ 161 µg/mL) | 7.78 | 45.3 (≈ 56.9 µg/mL) | 128 (≈ 161 µg/mL) | 7.78 | 209 | 8.48 | 64 (≈ 80.4 µg/mL) | 384 µM | 49.4 (≈ 62 µg/mL) | 128 (≈ 161 µg/mL) | 64 (≈ 80.4 µg/mL) | 8 (≈ 10 µg/mL) | 64 (≈ 80.4 µg/mL) | 7.14
2 | CC(C)C[C@H](NC(=O)[C@H](CC(C)C)NC(=O)[C@@H](NC(=O)[C@H](CCCCN)NC(=O)[C@H](C)NC(=O)[C@H](CCCNC(=N)N)NC(=O)[C@H](CCCCN)NC(=O)[C@H](C)NC(=O)[C@H](CC(C)C)NC(=O)CN)[C@@H](C)O)C(N)=O (H-GLAKRAKTLL-NH2) | ≥ 512 | ≥ 512 | ≥ 512 | ≥ 512 | 1 | ≥ 512 | ≥ 512 | 1 | ≥ 512 | 1 | ≥ 512 | >= 512 uM | ≥ 512 | ≥ 512 | ≥ 512 | ≥ 512 | ≥ 512 | 1
3 | CC(C)C[C@H](NC(=O)CN)C(=O)N[C@@H](CC(C)C)C(=O)N[C@@H](CCCCN)C(=O)N[C@@H](CCCNC(=N)N)C(=O)N[C@@H](CC(C)C)C(=O)N[C@@H](CCCCN)C(=O)N[C@H](C(=O)N[C@@H](CC(C)C)C(=O)N[C@@H](C)C(N)=O)[C@@H](C)O (H-GLLKRLKTLA-NH2) | 256 (≈ 285 µg/mL) | 166 (≈ 185 µg/mL) | 215 (≈ 239 µg/mL) | 256 (≈ 285 µg/mL) | 3.08 | 128 (≈ 142 µg/mL) | ≥ 512 | 3.08 | ≥ 512 | 4 | 256 (≈ 285 µg/mL) | >= 512 uM | 166 (≈ 185 µg/mL) | ≥ 512 | 256 (≈ 285 µg/mL) | 64 (≈ 71.1 µg/mL) | 32 (≈ 35.6 µg/mL) | 2.38
4 | C[C@@H](O)[C@H](NC(=O)[C@H](CCCCN)NC(=O)[C@H](Cc1c[nH]c2ccccc12)NC(=O)[C@H](CCCNC(=N)N)NC(=O)[C@H](CCCCN)NC(=O)[C@H](Cc1c[nH]c2ccccc12)NC(=O)[C@H](Cc1c[nH]c2ccccc12)NC(=O)CN)C(=O)N[C@@H](Cc1c[nH]c2ccccc12)C(=O)N[C@@H](Cc1c[nH]c2ccccc12)C(N)=O (H-GWWKRWKTWW-NH2) | 8 (≈ 12.2 µg/mL) | 9.51 (≈ 14.4 µg/mL) | 13.5 (≈ 20.5 µg/mL) | 16 (≈ 24.3 µg/mL) | 4.29 | 6.7 (≈ 10.2 µg/mL) | 16 (≈ 24.3 µg/mL) | 4.29 | 49.5 | 6.09 | 16 (≈ 24.3 µg/mL) | 40.79 µM | 9.51 (≈ 14.4 µg/mL) | 16 (≈ 24.3 µg/mL) | 16 (≈ 24.3 µg/mL) | 4 (≈ 6.08 µg/mL) | 4 (≈ 6.08 µg/mL) | 3.02
5 | CN[C@@H]1[C@H](O[C@H]2[C@H](O[C@H]3[C@H](O)[C@@H](O)[C@H](N=C(N)N)[C@@H](O)[C@@H]3N=C(N)N)O[C@@H](C)[C@]2(O)C=O)O[C@@H](CO)[C@H](O)[C@H]1O [STREPTOMYCIN] | < 1 |  |  | < 1 |  |  | 2 (≈ 1.16 µg/mL) |  |  |  | 4 (≈ 2.33 µg/mL) |  |  | 16 (≈ 9.31 µg/mL) | 4 (≈ 2.33 µg/mL) | 32 (≈ 18.6 µg/mL) | 2 (≈ 1.16 µg/mL) | 
6 | CC[C@H](C)[C@H](NC(=O)CN)C(=O)N[C@@H](CCCNC(=N)N)C(=O)N[C@@H](Cc1c[nH]c2ccccc12)C(=O)N[C@@H](CCCCN)C(=O)N[C@@H](Cc1ccccc1)C(=O)N[C@@H](Cc1c[nH]c2ccccc12)C(=O)N[C@@H](CCCCN)C(=O)N[C@@H](Cc1ccccc1)C(=O)N[C@H](C(N)=O)[C@@H](C)O (H-GIRWKFWKFT-NH2) | 32 (≈ 43.8 µg/mL) | 58.7 (≈ 80.3 µg/mL) | 45.3 (≈ 62 µg/mL) | 64 (≈ 87.5 µg/mL) | 8.72 | 76.1 (≈ 104 µg/mL) | 128 (≈ 175 µg/mL) | 8.72 | ≥ 512 | 6.73 | 32 (≈ 43.8 µg/mL) | >= 512 uM | 58.7 (≈ 80.3 µg/mL) | 128 (≈ 175 µg/mL) | 32 (≈ 43.8 µg/mL) | 128 (≈ 175 µg/mL) | 64 (≈ 87.5 µg/mL) | 11.3
7 | CO/N=C(\C(=O)N[C@@H]1C(=O)N2C(C(=O)O)=C(COC(C)=O)CS[C@H]12)c1csc(N)n1 [CEFOTAXIME] | 2 (≈ 0.911 µg/mL) |  |  | 8 (≈ 3.64 µg/mL) |  |  | 32 (≈ 14.6 µg/mL) |  |  |  | < 1 |  |  | ≥ 512 | < 1 | 2 (≈ 0.911 µg/mL) | < 1 | 
